# Like-named read-outs stand apart in the source and are kept apart here.
# Target: T1, SFRP-1 (Homo sapiens, UniProt Q8N474)
# T1 sequence (Q8N474 32-314): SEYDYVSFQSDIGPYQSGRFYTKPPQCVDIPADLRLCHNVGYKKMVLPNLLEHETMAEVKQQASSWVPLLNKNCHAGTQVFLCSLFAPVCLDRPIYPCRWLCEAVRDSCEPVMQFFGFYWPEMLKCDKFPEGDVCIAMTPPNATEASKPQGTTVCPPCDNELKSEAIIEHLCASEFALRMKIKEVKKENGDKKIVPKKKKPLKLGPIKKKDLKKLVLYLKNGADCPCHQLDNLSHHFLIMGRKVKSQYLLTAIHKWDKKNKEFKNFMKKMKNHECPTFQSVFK
# Experiment: Cell-based assay for in vitro measurement of SFRP-1/SARP2 antagonist activity (U2OS cells co-transfected with 16x TCF-tk-Luciferase reporter, Wnt and hSFRP-1);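 further: U2OS cells co-transfected with a TCF-tk luciferase reporter, a Wnt vector, hSFRP-1 or empty vector and CMV-βgal, luciferase luminescence read in cell lysates alongside βgal activity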
# Settings: for fold induction at 15 µM / fold induction at 30 µM: U2OS
# [1] = read-out: Fold Induction with SFRP-1, Conc 15 μM, with SFRP-1, fold induction over SFRP-1 control, single dose
# [2] = read-out: Fold Induction without SFRP-1, Conc 15 μM, without SFRP-1, single dose
# [3] = read-out: Fold Induction with SFRP-1, Conc 30 μM, with SFRP-1, fold induction over SFRP-1 control, single dose
# [4] = read-out: Fold Induction without SFRP-1, Conc 30 μM, without SFRP-1, single dose
fold induction at 15 µM [1],fold induction at 15 µM [2],fold induction at 30 µM [3],fold induction at 30 µM [4],"Fold Induction with SFRP-1 (Conc 30 μM, with SFRP-1, fold induction over SFRP-1 control, single dose) [fold]",SMILES
1.9,1.5,,,,"Cc1ccc(S(=O)(=O)c2ccccc2)cc1S(=O)(=O)N[C@H]1CCCC[C@@H]1O (relative stereo) [Example 412, N-[(1S*,2S*)-2-hydroxycyclohexyl]-2-methyl-5-(phenylsulfonyl)benzenesulfonamide]"
,,1.5,0.6,,"Cc1ccc(S(=O)(=O)c2ccccc2)cc1S(=O)(=O)NCCc1ccccc1 [Example 1, 2-Methyl-N-(2-phenylethyl)-5-(phenylsulfonyl)benzene sulfonamide]"
,,0.9,0.5,,"Cc1ccc(S(=O)(=O)c2ccc(F)cc2)cc1S(=O)(=O)NCCc1ccccc1 [Example 2, 5-[(4-fluorophenyl)sulfonyl]-2-methyl-N-(2-phenylethyl)benzenesulfonamide]"
,,1.1,0.4,,"Cc1ccc(S(=O)(=O)c2ccc(F)cc2)cc1S(=O)(=O)NCCc1ccccc1Cl [Example 3, N-[2-(2-chlorophenyl)ethyl]-5-[(4-fluorophenyl)sulfonyl]-2-methylbenzenesulfonamide]"
,,0.1,0.1,,"COc1ccccc1CCNS(=O)(=O)c1cc(S(=O)(=O)c2ccc(F)cc2)ccc1C [Example 4, 5-[(4-fluorophenyl)sulfonyl]-N-[2-(2-methoxyphenyl)ethyl]-2-methylbenzenesulfonamide]"
,,0.3,0.3,,"Cc1ccc(S(=O)(=O)c2ccc(F)cc2)cc1S(=O)(=O)NCCc1cccc(F)c1 [Example 24, N-[2-(3-fluorophenyl)ethyl]-5-[(4-fluorophenyl)sulfonyl]-2-methylbenzenesulfonamide]"
2.4,0.9,1.7,,1,"COc1ccc(Br)cc1CCNS(=O)(=O)c1cc(S(=O)(=O)c2ccc(F)cc2)ccc1C [Example 30, N-[2-(5-bromo-2-methoxyphenyl)ethyl]-5-[(4-fluorophenyl)sulfonyl]-2-methylbenzenesulfonamide]"
,,0.4,0.5,,"Cc1ccc(S(=O)(=O)c2ccccc2)cc1S(=O)(=O)NCCc1ccccc1Cl [Example 31, N-[2-(2-chlorophenyl)ethyl]-2-methyl-5-(phenylsulfonyl)benzenesulfonamide]"
,,0.5,0.5,,"COc1ccccc1CCNS(=O)(=O)c1cc(S(=O)(=O)c2ccccc2)ccc1C [Example 32, N-[2-(2-methoxyphenyl)ethyl]-2-methyl-5-(phenylsulfonyl)benzenesulfonamide]"
,,1.2,0.4,,"COc1cccc(CCNS(=O)(=O)c2cc(S(=O)(=O)c3ccccc3)ccc2C)c1 [Example 33, N-[2-(3-methoxyphenyl)ethyl]-2-methyl-5-(phenylsulfonyl)benzenesulfonamide]"
,,1.7,0.6,,"COc1ccc(CCNS(=O)(=O)c2cc(S(=O)(=O)c3ccccc3)ccc2C)cc1OC [Example 34, N-[2-(3,4-dimethoxyphenyl)ethyl]-2-methyl-5-(phenylsulfonyl)benzenesulfonamide]"
,,1.7,0.9,,"Cc1ccc(S(=O)(=O)c2ccccc2)cc1S(=O)(=O)NCCc1ccc(S(N)(=O)=O)cc1 [Example 40, N-{2-[4-(aminosulfonyl)phenyl]ethyl}-2-methyl-5-(phenylsulfonyl)benzenesulfonamide]"
,,3.6,1,,"Cc1ccc(S(=O)(=O)c2ccccc2)cc1S(=O)(=O)NCCc1ccc2c(c1)OCO2 [Example 43, N-[2-(1,3-benzodioxol-5-yl)ethyl]-2-methyl-5-(phenylsulfonyl)benzenesulfonamide]"
,,2.6,0.9,,"CCOc1ccc(CCNS(=O)(=O)c2cc(S(=O)(=O)c3ccccc3)ccc2C)cc1 [Example 51, N-[2-(4-ethoxyphenyl)ethyl]-2-methyl-5-(phenylsulfonyl)benzenesulfonamide]"

# Reference: patent US20060276464A1, “Diarylsulfone sulfonamides and use thereof” (Wyeth, priority 2005, published 2006)
